Tested on: peripheral blood leukocytes of normal mice
Assay: Effects on peripheral blood leukocytes of normal mice (peripheral blood routine test)
Type: in vivo
Settings: G-CSF 22.5 ug/kg sc once a day
Description: Animal hematology analyzer, model: HEMAVET950 • 2. Method
The mice were divided into blank control group, positive control group and the dithiolopyrrolone series of compounds group, there are 10 mice in each group.

[1] = day 0 (before administration), compounds 20 mg/kg ig once a day
[2] = day 3, compounds 20 mg/kg ig once a day
[3] = day 5, compounds 20 mg/kg ig once a day

`COc1ccc(-n2c3cssc-3c(NC(=O)OCC(C)C)c2=O)c(OC)c1` [compound 002] was tested, and the “NE % (percentage of neutrophils in the total number of white blood cells)” value [1] was 20.11%, the WBC count [1] was 8.12e+09 L⁻¹ and the “NE % (percentage of neutrophils in the total number of white blood cells)” value [2] was 52.13%. The WBC count [2] was 1.189e+10 L⁻¹, the “NE % (percentage of neutrophils in the total number of white blood cells)” value [3] was 68.69% and the WBC count [3] was 1.678e+10 L⁻¹.

In the case of `COc1ccc(-n2c3cssc-3c(NC(=O)OCc3ccccc3)c2=O)c(OC)c1` [compound 003], the “NE % (percentage of neutrophils in the total number of white blood cells)” value [1] is reported as 32.51%, the WBC count [1] is reported as 7.84e+09 L⁻¹ and the “NE % (percentage of neutrophils in the total number of white blood cells)” value [2] is reported as 54.34%. For the same compound, the WBC count [2] was 1.456e+10 L⁻¹, the “NE % (percentage of neutrophils in the total number of white blood cells)” value [3] was 68.30% and the WBC count [3] was 1.744e+10 L⁻¹.

With `COC(=O)Nc1c2sscc-2n(-c2ccc(OC)cc2OC)c1=O` [compound 005] the “NE % (percentage of neutrophils in the total number of white blood cells)” value [1] was 26.46%, the WBC count [1] was 8.08e+09 L⁻¹ and the “NE % (percentage of neutrophils in the total number of white blood cells)” value [2] was 35.55%. The WBC count [2] was 8.76e+09 L⁻¹, the “NE % (percentage of neutrophils in the total number of white blood cells)” value [3] was 46.65% and the WBC count [3] was 8.64e+09 L⁻¹.

For `COc1ccc(-n2c3cssc-3c(NC(=O)OC(C)C)c2=O)c(OC)c1` [compound 007], the “NE % (percentage of neutrophils in the total number of white blood cells)” value [1] was 23.31%, the WBC count [1] was 8.11e+09 L⁻¹ and the “NE % (percentage of neutrophils in the total number of white blood cells)” value [2] was 48.67%. For the same compound, the WBC count [2] was 1.188e+10 L⁻¹, the “NE % (percentage of neutrophils in the total number of white blood cells)” value [3] was 52.02% and the WBC count [3] was 1.222e+10 L⁻¹.

In the case of `C=CCOC(=O)Nc1c2sscc-2n(-c2ccc(OC)cc2OC)c1=O` [compound 008], the “NE % (percentage of neutrophils in the total number of white blood cells)” value [1] is reported as 31.56%, the WBC count [1] is reported as 8.88e+09 L⁻¹ and the “NE % (percentage of neutrophils in the total number of white blood cells)” value [2] is reported as 60.03%. The WBC count [2] was 1.779e+10 L⁻¹, the “NE % (percentage of neutrophils in the total number of white blood cells)” value [3] was 65.55% and the WBC count [3] was 1.876e+10 L⁻¹.

With `CCCOC(=O)Nc1c2sscc-2n(-c2ccc(OC)cc2OC)c1=O` [compound 009] the “NE % (percentage of neutrophils in the total number of white blood cells)” value [1] was 23.62%, the WBC count [1] was 9.01e+09 L⁻¹ and the “NE % (percentage of neutrophils in the total number of white blood cells)” value [2] was 27.46%. The WBC count [2] was 1.39e+10 L⁻¹, the “NE % (percentage of neutrophils in the total number of white blood cells)” value [3] was 47.78% and the WBC count [3] was 1.421e+10 L⁻¹.

With `COc1ccc(OC(=O)Nc2c3sscc-3n(-c3ccc(OC)cc3OC)c2=O)cc1` [compound 010] the “NE % (percentage of neutrophils in the total number of white blood cells)” value [1] was 20.86%, the WBC count [1] was 8.87e+09 L⁻¹ and the “NE % (percentage of neutrophils in the total number of white blood cells)” value [2] was 24.34%. For the same compound, the WBC count [2] was 1.018e+10 L⁻¹, the “NE % (percentage of neutrophils in the total number of white blood cells)” value [3] was 32.34% and the WBC count [3] was 1.023e+10 L⁻¹.

`CCCCCOC(=O)Nc1c2sscc-2n(-c2ccc(OC)cc2OC)c1=O` [compound 011] was tested, and the “NE % (percentage of neutrophils in the total number of white blood cells)” value [1] was 27.68%, the WBC count [1] was 8.76e+09 L⁻¹ and the “NE % (percentage of neutrophils in the total number of white blood cells)” value [2] was 46.65%. For the same compound, the WBC count [2] was 1.146e+10 L⁻¹, the “NE % (percentage of neutrophils in the total number of white blood cells)” value [3] was 51.87% and the WBC count [3] was 1.188e+10 L⁻¹.

For `COc1ccc(-n2c3cssc-3c(NC(=O)OCC3CCCO3)c2=O)c(OC)c1` (stereo not drawn) [compound 012], the “NE % (percentage of neutrophils in the total number of white blood cells)” value [1] was 34.02%, the WBC count [1] was 9.03e+09 L⁻¹ and the “NE % (percentage of neutrophils in the total number of white blood cells)” value [2] was 38.98%. The WBC count [2] was 1.146e+10 L⁻¹, the “NE % (percentage of neutrophils in the total number of white blood cells)” value [3] was 49.07% and the WBC count [3] was 1.201e+10 L⁻¹.

For `CCCCOC(=O)Nc1c2sscc-2n(-c2ccc(OC)cc2OC)c1=O` [compound 013], the “NE % (percentage of neutrophils in the total number of white blood cells)” value [1] was 25.6%, the WBC count [1] was 6.36e+09 L⁻¹ and the “NE % (percentage of neutrophils in the total number of white blood cells)” value [2] was 48.76%. For the same compound, the WBC count [2] was 1.269e+10 L⁻¹, the “NE % (percentage of neutrophils in the total number of white blood cells)” value [3] was 52.84% and the WBC count [3] was 1.329e+10 L⁻¹.

For `COc1ccc(-n2c3cssc-3c(NC(=O)OC3CCCC3)c2=O)c(OC)c1` [compound 014], the “NE % (percentage of neutrophils in the total number of white blood cells)” value [1] was 20.81%, the WBC count [1] was 6.78e+09 L⁻¹ and the “NE % (percentage of neutrophils in the total number of white blood cells)” value [2] was 23.39%. The WBC count [2] was 1.156e+10 L⁻¹, the “NE % (percentage of neutrophils in the total number of white blood cells)” value [3] was 40.40% and the WBC count [3] was 1.201e+10 L⁻¹.

For `CCCCCCCOC(=O)Nc1c2sscc-2n(-c2ccc(OC)cc2OC)c1=O` [compound 015], the “NE % (percentage of neutrophils in the total number of white blood cells)” value [1] was 20.76%, the WBC count [1] was 7.46e+09 L⁻¹ and the “NE % (percentage of neutrophils in the total number of white blood cells)” value [2] was 25.65%. The WBC count [2] was 1.156e+10 L⁻¹, the “NE % (percentage of neutrophils in the total number of white blood cells)” value [3] was 38.87% and the WBC count [3] was 1.334e+10 L⁻¹.

With `COc1ccc(-n2c3cssc-3c(NC(=O)OCCCl)c2=O)c(OC)c1` [compound 016] the “NE % (percentage of neutrophils in the total number of white blood cells)” value [1] was 18.79%, the WBC count [1] was 7.34e+09 L⁻¹ and the “NE % (percentage of neutrophils in the total number of white blood cells)” value [2] was 40.47%. For the same compound, the WBC count [2] was 1.047e+10 L⁻¹, the “NE % (percentage of neutrophils in the total number of white blood cells)” value [3] was 45.76% and the WBC count [3] was 1.156e+10 L⁻¹.

For `COc1ccc(-n2c3cssc-3c(NC(=O)Oc3ccc(Cl)cc3)c2=O)c(OC)c1` [compound 017], the “NE % (percentage of neutrophils in the total number of white blood cells)” value [1] was 23.24%, the WBC count [1] was 6.36e+09 L⁻¹ and the “NE % (percentage of neutrophils in the total number of white blood cells)” value [2] was 28.88%. The WBC count [2] was 8.67e+09 L⁻¹, the “NE % (percentage of neutrophils in the total number of white blood cells)” value [3] was 36.90% and the WBC count [3] was 8.88e+09 L⁻¹.

In the case of `COc1ccc(-n2c3cssc-3c(NC(=O)Oc3ccc(C)cc3)c2=O)c(OC)c1` [compound 018], the “NE % (percentage of neutrophils in the total number of white blood cells)” value [1] is reported as 21.74%, the WBC count [1] is reported as 6.15e+09 L⁻¹ and the “NE % (percentage of neutrophils in the total number of white blood cells)” value [2] is reported as 23.38%. The WBC count [2] was 8.59e+09 L⁻¹, the “NE % (percentage of neutrophils in the total number of white blood cells)” value [3] was 26.04% and the WBC count [3] was 9.03e+09 L⁻¹.

In the case of `COc1ccc(-n2c3cssc-3c(NC(=O)OCc3ccco3)c2=O)c(OC)c1` [compound 019], the “NE % (percentage of neutrophils in the total number of white blood cells)” value [1] is reported as 24.36%, the WBC count [1] is reported as 6.88e+09 L⁻¹ and the “NE % (percentage of neutrophils in the total number of white blood cells)” value [2] is reported as 28.89%. For the same compound, the WBC count [2] was 9.35e+09 L⁻¹, the “NE % (percentage of neutrophils in the total number of white blood cells)” value [3] was 29.84% and the WBC count [3] was 1.087e+10 L⁻¹.

In the case of `COc1ccc(-n2c3cssc-3c(NC(=O)OC(C)c3ccccc3)c2=O)c(OC)c1` (stereo not drawn) [compound 020], the “NE % (percentage of neutrophils in the total number of white blood cells)” value [1] is reported as 30.03%, the WBC count [1] is reported as 5.09e+09 L⁻¹ and the “NE % (percentage of neutrophils in the total number of white blood cells)” value [2] is reported as 38.66%. For the same compound, the WBC count [2] was 9.61e+09 L⁻¹, the “NE % (percentage of neutrophils in the total number of white blood cells)” value [3] was 42.49% and the WBC count [3] was 1.122e+10 L⁻¹.

`COc1ccc(-n2c3cssc-3c(NC(=O)OCc3cccs3)c2=O)c(OC)c1` [compound 021] was tested, and the “NE % (percentage of neutrophils in the total number of white blood cells)” value [1] was 29.78%, the WBC count [1] was 5.22e+09 L⁻¹ and the “NE % (percentage of neutrophils in the total number of white blood cells)” value [2] was 36.52%. The WBC count [2] was 9.93e+09 L⁻¹, the “NE % (percentage of neutrophils in the total number of white blood cells)” value [3] was 49.65% and the WBC count [3] was 1.122e+10 L⁻¹.

For `COc1ccc(-n2c3cssc-3c(NC(=O)Oc3cccnc3)c2=O)c(OC)c1` [compound 022], the “NE % (percentage of neutrophils in the total number of white blood cells)” value [1] was 31.23%, the WBC count [1] was 6.86e+09 L⁻¹ and the “NE % (percentage of neutrophils in the total number of white blood cells)” value [2] was 38.98%. For the same compound, the WBC count [2] was 1.003e+10 L⁻¹, the “NE % (percentage of neutrophils in the total number of white blood cells)” value [3] was 47.74% and the WBC count [3] was 1.211e+10 L⁻¹.

For `COc1ccc(-n2c3cssc-3c(NC(=O)N3CCOCC3)c2=O)c(OC)c1` [compound 023], the “NE % (percentage of neutrophils in the total number of white blood cells)” value [1] was 26.86%, the WBC count [1] was 7.86e+09 L⁻¹ and the “NE % (percentage of neutrophils in the total number of white blood cells)” value [2] was 56.66%. For the same compound, the WBC count [2] was 2.234e+10 L⁻¹, the “NE % (percentage of neutrophils in the total number of white blood cells)” value [3] was 77.31% and the WBC count [3] was 2.998e+10 L⁻¹.

For `COc1ccc(-n2c3cssc-3c(NC(=O)NCc3ccccc3)c2=O)c(OC)c1` [compound 024], the “NE % (percentage of neutrophils in the total number of white blood cells)” value [1] was 24.67%, the WBC count [1] was 7.95e+09 L⁻¹ and the “NE % (percentage of neutrophils in the total number of white blood cells)” value [2] was 33.98%. For the same compound, the WBC count [2] was 8.76e+09 L⁻¹, the “NE % (percentage of neutrophils in the total number of white blood cells)” value [3] was 42.02% and the WBC count [3] was 9.71e+09 L⁻¹.

With `COc1ccc(-n2c3cssc-3c(NC(=O)Nc3ccccc3)c2=O)c(OC)c1` [compound 026] the “NE % (percentage of neutrophils in the total number of white blood cells)” value [1] was 28.98%, the WBC count [1] was 7.84e+09 L⁻¹ and the “NE % (percentage of neutrophils in the total number of white blood cells)” value [2] was 30.38%. The WBC count [2] was 8.76e+09 L⁻¹, the “NE % (percentage of neutrophils in the total number of white blood cells)” value [3] was 38.63% and the WBC count [3] was 9.71e+09 L⁻¹.

With `CCSC(=O)Nc1c2sscc-2n(-c2ccc(OC)cc2OC)c1=O` [compound 027] the “NE % (percentage of neutrophils in the total number of white blood cells)” value [1] was 24.45%, the WBC count [1] was 8.76e+09 L⁻¹ and the “NE % (percentage of neutrophils in the total number of white blood cells)” value [2] was 45.46%. The WBC count [2] was 1.122e+10 L⁻¹, the “NE % (percentage of neutrophils in the total number of white blood cells)” value [3] was 48.37% and the WBC count [3] was 1.254e+10 L⁻¹.

Reference: US8258176B2, “Dithiolopyrrolone compounds, the preparation and the use thereof” (Shanghai Institute of Pharmaceutical Industry, priority 2007, dated 2012)
